We go through 1 compound from patent publication US11752111B2, “Use of cannabidivarin in the treatment of autism spectrum disorder, associated disorders and schizophrenia” (GW Research Limited, priority 2016, dated 2023).

For assay [1], the system named is PCP-treated rats. In words: Novel object recognition test, sub-chronic PCP model of schizophrenia. In kind it is in vivo, rat. To be noted: risperidone 0.1 mg/kg i.p. 60 min prior to testing. As for the experimental part: (§1) Female hooded-Lister rats were used for this experiment. Rats were housed in groups of 5 under standard laboratory conditions under a 12 hr light: dark cycle, lights on at 0700 hr. Testing was carried out in the light phase.
(§2) Rats were randomly assigned to two treatment groups and treated with vehicle, n=20 (distilled water, i.p.) or Phencyclidine hydrochloride (PCP), n=100 (2 mg/kg, i.p. twice daily for 7-days). PCP was dissolved in distilled water. This was followed by a 7-day wash out period before the rats were tested following acute treatment with CBDV, risperidone or vehicle.
(§3) Risperidone (0.1 mg/kg) was dissolved in a minimum volume of acetic acid, made up to volume with distilled water and pH adjusted to 6 with 0.1M NaOH and administered via the i.p. route in a volume of 1 ml/kg, 60 min prior to testing.
(§4) CBDV at 2, 10 or 20 mg/kg was dissolved in 2:1:17 (Ethanol:Cremofor:Saline 0.9%) and administered via the i.p. route in a volume of 5 ml/kg, 60 min prior to testing.
Rats were allowed to habituate to the empty test box and the behavioural test room environment for 1h on day 1. Prior to behavioural testing on day 2 rats are given a further 3 min habituation.
Following the 3 min habituation period, the rats are given two 3 min trials (T1 and T2) which are separated by a 1 min inter-trial interval in the home cage during which the objects are changed. Behaviour in all trials was recorded on video for subsequent blind scoring.
In this trial, the animals are allowed to explore two identical objects (A1 and A2) for 3 min.
In this trial, the animals explore a familiar object (A) from T1 and a novel object (B) for 3 min. The familiar object presented during T2 is a duplicate of the object presented in T1 in order to avoid any olfactory trails.
The object exploration is defined by animals licking, sniffing or touching the object with the forepaws whilst sniffing, but not leaning against, turning around, standing or sitting on the object. The exploration time (s) of each object (A, B, familiar and novel) in each trial are recorded using two stopwatches and the following factors are calculated:
Discrimination index (DI), which is calculated as shown below: […]

For assay [2], the system named is PCP-treated rats. The assay is described as follows: Social interaction test, sub-chronic PCP model of schizophrenia. In kind it is in vivo, rat. Here is the method:
as §1, §2, §3, §4
The social interaction test is performed in an open-field comprising a square box made of Plexiglas (52×52×31 cm) placed 27 cm above the floor on a moveable trolley. The floor of the box is white with black gridlines forming 9 identical squares on it. All other walls are black. A video camera connected to a video recorder and monitor is positioned above the box. The object used for the test consists of a heavy structure made of metal that cannot be displaced by the animals.
The rats were habituated to the test environment and arena prior to the test day. Habituation consists of placing all rats from one cage together in the empty test arena for one hour for three days including the day before the test day.
Pairs of rats, weight matched (15-20 g) and unfamiliar to each other, receiving either no treatment (n=70 “conspecific” rats) or different treatments (PCP and Vehicle; n=10 “tested” rats or PCP+Drug; n=50 “tested” rats) were placed in the test arena together for 10 min and behaviour assessed as described below.
An inanimate object such as an unopened drinks can is also placed in the centre of the arena to measure any differences in interaction of the test animal with an unfamiliar animal as opposed to an unfamiliar object. After each 10 minute trial, the object and arena are cleaned with 10% alcohol in an attempt to remove traces of any olfactory cues. All testing is carried out under standard room illumination levels (70 cd/m2).
Behaviour in both trials was recorded on video for subsequent blind scoring. A behavioural scoring software program (Hindsight, Scientific programming services) is used to score the following parameters: • Investigative sniffing behaviour: sniffing the conspecific's snout or parts of the body including the anogenital region; • Following: rat moves after the conspecific i.e. a vehicle treated rat of the same species, around the arena; • Avoidances: actively turning away when approached by the conspecific animal; • Investigation of object: exploration of object placed in centre of the arena; and • Locomotor activity is recorded by counting the total number of sectors (i.e. lines) crossed by the test rat. Results

For assay [3], the system named is PCP-treated rats. To be noted: background statement; cited from earlier work.

As to `Cc1nc2n(c(=O)c1CCN1CCC(c3noc4cc(F)ccc34)CC1)CCCC2` [risperidone, reference compound], the “time spent investigating two identical objects in Trial 1 (FIG. 16A)” value in the assay on PCP-treated rats [1] is given as “no real preference”. Besides, the “PCP effects on social interaction (sniffing, following, avoiding) (FIG. 18)” value with PCP-treated rats [2] (risperidone 0.1 mg/kg i.p.) was “reverse these effects in a statistically significant manner”. Besides, in the assay on PCP-treated rats [2] (risperidone 0.1 mg/kg, time increased over PCP alone), the “time spent following the other rat (FIG. 18B)” value is given as “not seen to be significant”. Moreover, the “PCP-induced deficit in the novel object recognition (NOR) test” value in the assay with PCP-treated rats [3] is “can attenuate the deficit”.
